Measurements from patent publication US6673345B2, “Anti-parasite astacin metalloendopeptidase antibodies” (Heska Corporation, priority 1994, dated 2004).
“Also recorded” adds a separate entry of the source.

How the values were obtained:
[1] = molecular target: astacin (Astacus astacus, UniProt P07584); details: cited from earlier work
[2] = tested on: D. immitis larvae (L3); assay: Effect of protease inhibitors on D. immitis larval molting in culture; assay type: cell-based, Dirofilaria immitis; details: for % reduction (of molt versus control): 72 hours; for % molt: L3 in NI medium, evaluated at 72 hours, control 82.6; for Observed movement and condition of treated larvae compared to controls: observed daily throughout the study; for Effect on ability of larvae to molt (in words): treatment of L3, ANOVA overall P=0.0001
[3] = tested on: ES proteins displaying metalloprotease activity (about 60 kD, about 95 kD, at least about 200 kD); details: 2 mM EDTA in reaction buffer, about 37° C., 66 hours

Sequence of astacin (P07584 50-249 limits assumed): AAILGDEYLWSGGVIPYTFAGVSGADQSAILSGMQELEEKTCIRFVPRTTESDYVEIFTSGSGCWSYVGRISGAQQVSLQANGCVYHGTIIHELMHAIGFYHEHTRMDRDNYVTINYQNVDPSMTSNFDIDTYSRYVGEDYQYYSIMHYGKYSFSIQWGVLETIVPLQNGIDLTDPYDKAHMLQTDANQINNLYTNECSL

| Compound | Inhibition of astacin activity [1] | % reduction (of molt versus control) ([2]; 1.0 mM inhibitor) [%] | % molt ([2]; 1.0 mM inhibitor) [%] | % reduction (of molt versus control) ([2]; 2.5 mM inhibitor) [%] | % molt ([2]; 2.5 mM inhibitor) [%] | % reduction (of molt versus control) ([2]; 5.0 mM inhibitor) [%] | % molt ([2]; 5.0 mM inhibitor) [%] | Observed movement and condition of treated larvae compared to controls [2] | Effect on ability of larvae to molt (in words) [2] | Inhibition of ES metalloprotease (collagenase) activity [3] |
| --- | --- | --- | --- | --- | --- | --- | --- | --- | --- | --- |
| c1cnc2c(c1)ccc1cccnc12 [1,10-phenanthroline] | inhibited |  |  |  |  |  |  |  |  |  |
| CC(C)C[C@H](NC(=O)[C@@H](O)[C@H](N)Cc1ccccc1)C(=O)O [Bestatin] |  | 27.3 | 60.0 | 57.9 | 34.8 | 94.1 | 4.9 | moved much more slowly | significantly reduces the ability of the larvae to molt |  |
| O=C(O)CN(CCN(CC(=O)O)CC(=O)O)CC(=O)O [EDTA, ethylene diamine tetraacetic acid] | inhibited |  |  |  |  |  |  |  |  | completely inhibited |
| CC(C)C[C@H](NP(=O)(O)O[C@@H]1O[C@@H](C)[C@H](O)[C@@H](O)[C@H]1O)C(=O)N[C@@H](Cc1c[nH]c2ccccc12)C(=O)O [Phosphoramidon] |  | 48.4 | 42.6 | 85.1 | 12.3 | 100.0 | 0.0 | very active; also recorded: in poor shape by the end of the study | significantly reduces the ability of the larvae to molt |  |
| TIMP1: Tissue inhibitor of metalloproteinases, protein inhibitor of zinc endopeptidases | do not demonstrate inhibitory activity |  |  |  |  |  |  |  |  |  |
